Consider five compounds from patent US20230348454A1, “COMPOUNDS AS MODULATORS OF BIS-PHOSPHOGLYCERATE MUTASE FOR THE TREATMENT OF SICKLE CELL DISEASE” (Genzyme Corporation, priority 2020, published 2023).

Experiment [1] addresses T1, human Bisphosphoglycerate mutase (hBPGM) (Homo sapiens, UniProt P07738).
T1 sequence (P07738 1-259): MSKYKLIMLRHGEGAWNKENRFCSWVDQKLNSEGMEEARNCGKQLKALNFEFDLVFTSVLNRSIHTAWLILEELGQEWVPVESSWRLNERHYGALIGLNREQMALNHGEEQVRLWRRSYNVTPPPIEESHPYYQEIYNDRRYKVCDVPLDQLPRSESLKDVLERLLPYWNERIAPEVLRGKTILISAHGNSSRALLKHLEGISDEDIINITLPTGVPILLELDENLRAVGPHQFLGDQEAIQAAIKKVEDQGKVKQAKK
Put plainly: BPGM phosphatase assay. The format is biochemical. The protocol: The following materials were used in this assay: Tris buffer (50 mM Tris, 0.01% Tween 20, pH 7.4); cyclohexylammonium salt of 2,3-BPG (stock solution of 500 mM in ultapure distilled water; human Bisphosphoglycerate mutase (hBPGM; stock solution of 110 μM in Standard Buffer); 3-Phosphoglyceric acid (3-PG; stock solution of 100 mM in ultrapure distilled water); 384-Well Polystyrene Plates (Fisherbrand™, Catalog No.: 12-566-625); BIOMOL GREEN REAGENT (Enzo life sciences, BML-AK111-0250); and 1 mM DMSO stock of exemplary compounds.
A 3-PG enzyme mix solution (final enzyme concentration 62.5 nM, 3-PG concentration at 50 µM, 14.5 uL) was added to onto a 384-well clear plate. Solutions of the test compounds were then added to the plate and the DMSO content was normalized across the plate. The plate was incubated at RT for 15 min. Next, the substrate 2,3-BPG (5 μL) was added to all the wells, and the plate was sealed and incubated for 24 hr at RT. After incubation, BIOMOL green dye (40 μL) was added to all the wells, the plate was shaken to mix, and the plate was incubated at RT for 20-30 min. Absorbance measurements were recorded at 620 nm.

The target of another experiment is T2, hBPGM (Homo sapiens, UniProt P07738).
T2 sequence (P07738 1-259): T1 sequence (P07738 1-259)
Put plainly: BPGM synthase assay. The format is biochemical. Summed up: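 The enzyme solution held 5 nM BPGM with 0.4 U/mL coupling GAPDH in Tris pH 7.4, 3.23 mM KH2PO4, 1 mM DTT, and compounds were pre-incubated 30 min at RT. Substrate solution (2 mM NAD, 20 μM 3PG, 800 μM GAP) reacted 60 min before a koningic acid quench. NADH fluorescence (360/460) and diaphorase/resazurin-derived resorufin (544/590) were read.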

In a further experiment the test system is human red blood cells. The experiment in a line: Human cell-based assay (2,3-BPG, ATP by LC/MS). To be noted: Erythrocyte, whole blood suspension, 37° C., 24 h, read-out: hRBC EC50. The method, then: The following materials were used in this assay: DMSO; Hemox buffer (30 mM TES, 135 mM NaCl, 5 mM KCl, pH 7.4); Inosine (100 mM in hemox buffer); Glucose (1 M in water); human red blood cells; LC/MS Optima grade methanol; LC/MS Optima grade water; and Incubation buffer (30 mM TES, 135 mM NaCl, 5 mM KCl, 50 mM inosine, 20 mM glucose pH 7.4).
Test compounds were loaded onto a 96-well plate (final concentration of DMSO was 1%). 10 mL whole blood was resuspended with an equivalent amount of 2× incubation buffer to make 25% het & 50% plasma solution. The final solution contains 10 mM glucose and 25 mM inosine. The blood suspension (100 uL) was added to the wells of the plate. The plate was covered with an adhesive foil cover and plastic lid, and incubated at 37° C. for 24 h. The samples were extracted through an SPE column and the metabolites (2,3-BPG, ATP) were analyzed by LC/MS.

Setting [2] is: Table 4, read-out: hBPGM Phosphatase EC50.
[3] abbreviates: Table 6, read-out: huBPGM: phosphatase Enzyme EC50.
[4] abbreviates: Table 3, read-out: hBPGM Synthase IC50.
Setting [5] is: Table 6, read-out: huBPGM: synthase Enzyme IC50.

Like-named read-outs stand apart in the source and are kept apart here.

For the compound `Cc1nc(COc2ccccn2)sc1-c1csc(-c2cc(F)c(O)c(F)c2F)n1` [compound 11], the EC50 in experiment [1] (setting [2]) and in experiment [1] (setting [3]) was 190 nM each time. Further, the IC50 – broadly, the midpoint of a concentration-inhibition curve – was found to be 511 nM on hBPGM (setting [4]) and 510 nM on hBPGM (setting [5]).
As to `COC(=O)NCc1nc(C)c(-c2csc(-c3ccc(C(=O)NS(=O)(=O)c4ccccc4)cc3)n2)s1` [compound 13], the EC50 (in general, the concentration that produces a half-maximal response) in experiment [1] (setting [2]) amounted to 55 nM; in experiment [1] (setting [3]) it was 32 nM. In addition, the IC50 on hBPGM (setting [4]) was 169 nM; on hBPGM (setting [5]) it was 170 nM.
With `Cc1nc(COc2ncccn2)sc1-c1cccc(-c2ccc3nn[nH]c3c2)n1` [compound 14], the 50% effective concentration (EC50) in experiment [1] (setting [2]) was determined as 570 nM. Moreover, the IC50 on hBPGM (setting [4]) stood at 1010 nM.
For the compound `Cc1nc(COc2ncccn2)sc1-c1cccc(-c2ccc(-c3noc(=O)[nH]3)cc2)n1` [compound 15], the EC50 in experiment [1] (setting [2]) and in experiment [1] (setting [3]) was 170 nM throughout. The IC50 at hBPGM (setting [5]) is 140 nM.
For the compound `COC(=O)NCc1nc(C)c(-c2csc(-c3cc(F)c4[nH]nnc4c3F)n2)s1` [compound 16], the EC50 with human red blood cells stood at 22500 nM.
